Test results published in patent US20050244328A1 (priority 2002, published 2005).
Where “and” joins values, the source holds several entries; their conditions need not be identical. Equal entries are not always repeated.

How the values were obtained:
Fecal Coliform = assay: Fecal coliform counts in effluent, full-scale pilot and baseline at WWTP 2
Staphylococcus aureus = details: 1 ppm of ClO2; contact time 60 s; cited from earlier work
Menidia beryllina = assay: 96-hour bioassay of ClO2 treated side stream effluent, Independent Bioassay Laboratory A, silverside minnow; assay type: in vivo; details: end of 96-hour test period; ClO2 treated side stream effluent grabs Sep. 3, 2001 12:00, 18:00, 24:00, Sep. 4, 2001 06:00
Description: (§1) Mysidopsis bahia (Mysids) and Menidia beryllina (Silversides) were subjected to ClO2 treated effluent in these tests. Adequate volumes of chemical were brought to the site to conduct a dosing of the side stream for a 24-hour period. During this period, 2 gallons of treated water were taken at 6-hour intervals, preserved on ice and shipped to an independent bioassay laboratory (designated Independent Bioassay Laboratory A).
(§2) Table 3(c) illustrates the survivability of the organisms at the 96-hour end-point in the test for each of the 4 samples taken (samples indicated by date and time each sample was taken.).

Pseudomonas aeruginosa = details: 1 ppm of ClO2; contact time 60 s; cited from earlier work
Mysidopsis bahia = assay: 96-hour bioassay of ClO2 treated side stream effluent, Independent Bioassay Laboratory A, mysid shrimp; assay type: in vivo; details: end of 96-hour test period; ClO2 treated side stream effluent grabs Sep. 3, 2001 12:00, 18:00, 24:00, Sep. 4, 2001 06:00
Description: as §1, §2

M. beryllina = assay: Bioassay of ClO2 treated WWTP 2 effluent by Laboratory 4, silverside minnow; assay type: in vivo, Menidia beryllina; details: for Sample survival % of M. berylina: grabs Sep. 11, 2002 10:00, 15:30, 22:00, Sep. 12, 2002 10:00
Description: With the success of the above bioassay series that began on Aug. 20, 2002, it was concluded that a third party test was needed to verify research data. Water grabs from the Anastasia Island Treatment Facility, taken on Aug. 28, 2002, were delivered to Laboratory 4, an independent bioassay laboratory. Additional testing of the water sent to Laboratory 4 labs was also forwarded to another contract lab to document the water quality during the sample periods for the bioassays. It should be noted here that the plant was operating under their normal operating conditions and accepting both landfill leachate as well as septic tank and portable toilet waste. These were however pumped into a storage tank and then trickled into the influent stream at the headworks.
The complete toxicological study as reference is included as attachment at the end of this study.
With the successful bioassay conducted by the Laboratory 4 labs, a second series of water samples was taken for the repeat bioassay. These samples were taken on Sep. 11, 2002 and forwarded to Laboratory 4 labs on Sep. 12, 2002 to conduct the bioassay. The results of this test for both the water quality toxicity and the bioassay are illustrated in the Tables 13, 14 and 15.
The complete toxicological results are provided at the end of this study as attachments.

Chlorine dioxide [ClO2]
FECAL (Fecal Coliform; 13:00, 1.2 PPM DOSE RATE, sample point 1, 19 Aug. 2002): 6
FC (fecal) (Fecal Coliform; 15:00, 0.91 PPM DOSE, sample point 4, 19 Aug. 2002): 15
FECAL (Fecal Coliform; 15:45, 1.05 PPM DOSE RATE, sample point 4, 19 Aug. 2002): 26
FECAL (Fecal Coliform; WWTP 2 effluent 28-Aug, CL2SO2 at 8:30, CLO2 at 10:15): 45
Inactivation in % (Staphylococcus aureus): 99.999%
Percent Survival m. beryllina (Menidia beryllina): 95% and 100%
Inactivation in % (Pseudomonas aeruginosa): >99.999%
Percent Survival Mysid bahia (Mysidopsis bahia): 0%
Sample survival % of M. berylina (M. beryllina; 6.25 % Effluent): 100%
Sample survival % of M. berylina (M. beryllina; 12.5 % Effluent): 100%
Sample survival % of M. berylina (M. beryllina; 25 % Effluent): 100% and 95%
Sample survival % of M. berylina (M. beryllina; 50 % Effluent): 95% and 100%
Sample survival % of M. berylina (M. beryllina; 100 % Effluent): 95% and 100%
M. beryllina % survival (M. beryllina; ClO2 treated effluent grabs Aug. 28, 2002 10:15, 16:00, 22:00, Aug. 29, 2002 09:30): 100%
